Data reported in PubChem BioAssay AID330 (DTP/NCI, 2004).
Values joined by “and” are separate entries in the source; they are usually repeats but may differ in a detail not shown here. Identical values can stand only once. Toxic doses and inconclusive results are not listed. The calls were made as follows: active = survival T/C of 150% or more; inactive = T/C below 125% in these data.

Tested on: P388 leukemia ip, CD2F1 mice, survival T/C
Experiment: NCI In Vivo Anticancer Drug Screen. Data for tumor model P388 Leukemia (intraperitoneal) in CD2F1 (CDF1) mice
Conditions: endpoint: median survival time, higher = longer survival
How it was run: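 Mice carrying the transplanted tumor received test compound or vehicle. Survival was recorded in each group, and the value is the treated-group measurement divided by that of the vehicle-treated control group.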

[1] = dose: 60.0 mg/kg/injection, schedule: Q01DX005 (ip), vehicle: saline
[2] = dose: 120.0 mg/kg/injection, schedule: Q01DX005 (ip), vehicle: saline
[3] = dose: 240.0 mg/kg/injection, schedule: Q01DX005 (ip), vehicle: saline
[4] = dose: 25.0 mg/kg/injection, schedule: Q01DX009 (ip), vehicle: saline with Tween-80
[5] = dose: 50.0 mg/kg/injection, schedule: Q01DX009 (ip), vehicle: saline with Tween-80
[6] = dose: 100.0 mg/kg/injection, schedule: Q01DX009 (ip), vehicle: saline with Tween-80
[7] = dose: 50.0 mg/kg/injection, schedule: Q01DX009 (ip), vehicle: Klucel (hydroxypropylcellulose) (HPC)
[8] = dose: 100.0 mg/kg/injection, schedule: Q01DX009 (ip), vehicle: Klucel (hydroxypropylcellulose) (HPC)
[9] = dose: 200.0 mg/kg/injection, schedule: Q01DX009 (ip), vehicle: Klucel (hydroxypropylcellulose) (HPC)
[10] = dose: 60.0 mg/kg/injection, schedule: Q01DX005 (ip), vehicle: saline with Tween-80
[11] = dose: 120.0 mg/kg/injection, schedule: Q01DX005 (ip), vehicle: saline with Tween-80
[12] = dose: 240.0 mg/kg/injection, schedule: Q01DX005 (ip), vehicle: saline with Tween-80
[13] = dose: 50.0 mg/kg/injection, schedule: Q01DX005 (ip), vehicle: Klucel (hydroxypropylcellulose) (HPC)
[14] = dose: 100.0 mg/kg/injection, schedule: Q01DX005 (ip), vehicle: Klucel (hydroxypropylcellulose) (HPC)
[15] = dose: 200.0 mg/kg/injection, schedule: Q01DX005 (ip), vehicle: Klucel (hydroxypropylcellulose) (HPC)
[16] = dose: 6.25 mg/kg/injection, schedule: Q01DX009 (ip), vehicle: saline with Tween-80
[17] = dose: 12.5 mg/kg/injection, schedule: Q01DX009 (ip), vehicle: saline with Tween-80

Measured: T/C

NC(CSCCc1ccncc1)C(=O)O (stereo not drawn)
inactive: dose: 6.25 mg/kg/injection, schedule: Q01DX009 (ip), vehicle: saline 103 % of control | dose: 12.5 mg/kg/injection, schedule: Q01DX009 (ip), vehicle: saline 105 % of control | dose: 25.0 mg/kg/injection, schedule: Q01DX009 (ip), vehicle: saline 96 % of control

Cc1ccc(C(=NN=C(c2ccc(C)cc2)c2ccc(C)cc2)c2ccc(C)cc2)cc1
inactive: dose: 100.0 mg/kg/injection, schedule: Q04DX002 (ip), vehicle: saline with Tween-80 90 % of control | dose: 200.0 mg/kg/injection, schedule: Q04DX002 (ip), vehicle: saline with Tween-80 93 % of control

CCN(CC)CCn1c(C)nc2c1C(=O)c1nc(C)n(CCN(CC)CC)c1C2=O
inactive: dose: 6.25 mg/kg/injection, schedule: Q01DX005 (ip), vehicle: saline 100 % of control | dose: 12.5 mg/kg/injection, schedule: Q01DX005 (ip), vehicle: saline 109 % of control

COC(=O)c1cc(-c2ccccn2)[nH]c(=O)c1C#N
inactive: [1] 104 % of control | [2] 100 % of control | [3] 97 % of control

COC1/C=C/OC2(C)Oc3c(C)c(O)c4c(O)c(c(/C=N/N5C(C)CN(Cc6ccc([N+](=O)[O-])cc6)CC5C)c(O)c4c3C2=O)NC(=O)/C(C)=C\C=C\C(C)C(O)C(C)C(O)C(C)C(OC(C)=O)C1C (stereo not drawn)
inactive: [4] 100 % of control | dose: 25.0 mg/kg/injection, schedule: Q01DX009 (ip), vehicle: suspension in saline 103 % of control | [5] 104 % of control and 119 % of control | dose: 50.0 mg/kg/injection, schedule: Q01DX009 (ip), vehicle: suspension in saline 103 % of control | [6] 119 % of control | dose: 100.0 mg/kg/injection, schedule: Q01DX009 (ip), vehicle: suspension in saline 108 % of control | dose: 200.0 mg/kg/injection, schedule: Q01DX009 (ip), vehicle: suspension in saline 119 % of control

CS(=O)(=O)OCCN(CCOS(C)(=O)=O)c1ccc([N+](=O)[O-])cc1[N+](=O)[O-]
inactive: dose: 100.0 mg/kg/injection, schedule: Q01DX001 (ip), vehicle: Klucel (hydroxypropylcellulose) (HPC) 88 % of control | dose: 200.0 mg/kg/injection, schedule: Q01DX001 (ip), vehicle: Klucel (hydroxypropylcellulose) (HPC) 100 % of control | dose: 400.0 mg/kg/injection, schedule: Q01DX001 (ip), vehicle: Klucel (hydroxypropylcellulose) (HPC) 103 % of control

COc1cccc(C2NC(=S)NC(=O)C2C#N)c1 (stereo not drawn)
inactive: [7] 98 % of control | [8] 98 % of control | [9] 94 % of control

COC(=O)C(=O)C1CCc2c(C(=O)OC)nc3[nH]n(-c4ccccc4)c(=O)c3c21 (stereo not drawn)
inactive: [10] 111 % of control | [11] 94 % of control | [12] 88 % of control

COC(=O)[C@@H]1CCC(/C(C#N)=C2/CC[C@@H](C(=O)OC)N2)=N1
inactive: [10] 96 % of control | [11] 95 % of control | [12] 94 % of control

CCOC(=O)/N=C1\SC2(CC(C)=C(C)CS2=O)C(O)=C1C(=O)OCC (stereo not drawn)
inactive: [10] 101 % of control | [11] 100 % of control | [12] 101 % of control

Cc1cnc2cc(Cl)ccc2c1Cl
inactive: [13] 101 % of control | [14] 100 % of control | [15] 103 % of control

COC1(OC)C(Cl)=C(Cl)C(Cl)=C1Cl
inactive: [16] 95 % of control | [17] 118 % of control | [4] 113 % of control

Cc1cc(Cc2ccc3c(c2)OCO3)ccc1OCC(=O)O
inactive: [13] 98 % of control | [14] 105 % of control | [15] 104 % of control

c1nc2c3c4c(sc3ncn2n1)CCCC4
inactive: [13] 98 % of control | [14] 106 % of control | [15] 91 % of control

COC1/C=C\OC2(C)Oc3c(C)c(O)c4c(O)c(c5sc(N)nc5c4c3C2=O)NC(=O)/C(C)=C\C=C\C(C)C(O)C(C)C(O)C(C)C(OC(C)=O)C1C (stereo not drawn)
inactive: dose: 25.0 mg/kg/injection, schedule: Q01DX009 (ip), vehicle: Klucel (hydroxypropylcellulose) (HPC) 100 % of control | [7] 102 % of control | [8] 100 % of control | [9] 100 % of control

CCOc1ccc(C(C)c2cc3c(cc2OC)OCO3)c(C)c1 (stereo not drawn)
inactive: [13] 103 % of control | [14] 106 % of control | [15] 106 % of control

CC1(C)CC[C@]2(C(=O)O)CC[C@]3(C)C(=CC[C@@H]4[C@@]5(C)CC[C@H](O)C(C)(C)[C@@H]5CC[C@]43C)[C@@H]2C1
inactive: [17] 108 % of control | [4] 99 % of control

CSc1nccn[n+]1C
inactive: dose: 100.0 mg/kg/injection, schedule: Q01DX001 (ip), vehicle: saline 112 % of control | dose: 200.0 mg/kg/injection, schedule: Q01DX001 (ip), vehicle: saline 111 % of control

CCN(CC)C(=S)N/N=C(\C)c1ccccn1
inactive: [16] 106 % of control | [17] 89 % of control

C=C(C)C(=O)NCC(=O)NCC(=O)NCC(=O)Oc1ccc([N+](=O)[O-])cc1
inactive: dose: 50.0 mg/kg/injection, schedule: Q04DX003 (ip), vehicle: saline with Tween-80 100 % of control | dose: 100.0 mg/kg/injection, schedule: Q04DX003 (ip), vehicle: saline with Tween-80 90 % of control | dose: 200.0 mg/kg/injection, schedule: Q04DX003 (ip), vehicle: saline with Tween-80 99 % of control

CN1OC(C#N)CC1c1ccccc1 (stereo not drawn)
inactive: dose: 12.5 mg/kg/injection, schedule: Q04DX002 (ip), vehicle: Klucel (hydroxypropylcellulose) (HPC) 100 % of control | dose: 25.0 mg/kg/injection, schedule: Q04DX002 (ip), vehicle: Klucel (hydroxypropylcellulose) (HPC) 99 % of control and 101 % of control | dose: 50.0 mg/kg/injection, schedule: Q04DX002 (ip), vehicle: Klucel (hydroxypropylcellulose) (HPC) 101 % of control and 112 % of control | dose: 87.5 mg/kg/injection, schedule: Q04DX002 (ip), vehicle: Klucel (hydroxypropylcellulose) (HPC) 101 % of control | dose: 100.0 mg/kg/injection, schedule: Q04DX002 (ip), vehicle: Klucel (hydroxypropylcellulose) (HPC) 103 % of control and 105 % of control and 121 % of control | dose: 350.0 mg/kg/injection, schedule: Q04DX002 (ip), vehicle: Klucel (hydroxypropylcellulose) (HPC) 100 % of control

O=C(O)c1c(CS(F)(F)(F)(F)F)cc(=O)oc1CS(F)(F)(F)(F)F
inactive: dose: 50.0 mg/kg/injection, schedule: Q01DX005 (ip), vehicle: saline with Tween-80 106 % of control | dose: 100.0 mg/kg/injection, schedule: Q01DX005 (ip), vehicle: saline with Tween-80 105 % of control

O=C(OC1CSC=CSC1)c1ccccc1
inactive: [7] 104 % of control | [8] 109 % of control | [9] 110 % of control

CC(=O)OC1C=C2C(=O)OCC2(O)C2(C)CCCC(C)(C)C12 (stereo not drawn)
inactive: dose: 3.12 mg/kg/injection, schedule: Q01DX009 (ip), vehicle: other 102 % of control | dose: 6.25 mg/kg/injection, schedule: Q01DX009 (ip), vehicle: other 100 % of control | dose: 12.5 mg/kg/injection, schedule: Q01DX009 (ip), vehicle: other 102 % of control

COC(=O)/C=C1\C(=O)OC2(C)CCCCC12 (stereo not drawn)
inactive: [5] 95 % of control | [6] 97 % of control | dose: 200.0 mg/kg/injection, schedule: Q01DX009 (ip), vehicle: saline with Tween-80 100 % of control

O=c1c2ccccc2c(=O)c2c1ccc1[nH]c3ccccc3n(-c3ccccc3)c12
inactive: [13] 101 % of control | [14] 100 % of control | [15] 100 % of control

C[C@@H]1C[C@H](C)OC(CO)O1 (stereo partly drawn) (tested in a mixture with another compound)
inactive: [1] 100 % of control | [2] 99 % of control | [3] 97 % of control
